The nature of assay [1]: Inhibition of Mycobacterium tuberculosis Uracil-DNA glycosylase using 5' 32P end-labelled uracil DNA containing oligomer (5'-ctcaagtgUaggcatgcttttgcatgcctgcacttga-3') as substrate preincubated with enzyme for 15 mins followed by incubation on ice for 5 mins and incubation at room temperature for 5 mins and later incubated with substrate for 15 mins by radioactivity based assay.

A short description of assay [2]: Inhibition of Mycobacterium tuberculosis Uracil-DNA glycosylase using 5'-FAM-CUUUUUGAGCTTTTGCTCAAAAAG-3'-BHQ-1 as substrate measured every 2 mins for 40 mins by fluorescence based analysis.

`O=C(O)c1c[nH]c(=O)[nH]c1=O`: the 50% inhibitory concentration (IC50) is 2400 µM in assay [1] and 15900 µM in assay [2]. In the same order, the values of `O=C(O)c1[nH]c(=O)[nH]c(=O)c1F` are 2800 µM and 2930 µM. In assay [2], `COc1cc2nc(O)nc(O)c2cc1OC` registered an IC50 of 930 µM.

`Oc1ncc(O)c(O)n1`: the IC50 in assay [1] was found to be 1200 µM; in assay [2], 2800 µM. Regarding `O=C1NC(=O)C(=Cc2ccc([N+](=O)[O-])cc2)C(=O)N1`, in assay [1], the IC50 came out at 1000 µM.

Turning to `COC(=O)COc1ccc(C=C2C(=O)NC(=O)NC2=O)cc1`, the results for the IC50 in assay [1] and in assay [2] were 500 µM and 330 µM, respectively. On to `COC(=O)CCCOc1ccc(C=C2C(=O)NC(=O)NC2=O)cc1`, for which the IC50 in assay [1] is 3000 µM. For the molecule `COc1cccc(C=C2C(=O)NC(=O)NC2=O)c1`, the IC50 in assay [1] came out at 1900 µM. `COC(=O)c1ccc(OCCOc2ccc(C=C3C(=O)NC(=O)NC3=O)cc2)cc1`: the IC50 in assay [1] is 1200 µM.

Regarding `COC(=O)c1cccc(OCCOc2ccc(C=C3C(=O)NC(=O)NC3=O)cc2)c1`, the IC50 in assay [1] turned out to be 2400 µM. Turning to `COC(=O)c1ccccc1OCCCOc1ccc(C=C2C(=O)NC(=O)NC2=O)cc1`, the IC50 in assay [1] came to 1600 µM. Consider `O=C1NC(=O)C(=Cc2ccc(OCCOc3ccccc3C(=O)O)cc2)C(=O)N1`, for which the IC50 in assay [1] is 1900 µM; in assay [2], 1100 µM. Turning to `O=C1NC(=O)C(=Cc2ccc(OCCCOc3ccccc3C(=O)O)cc2)C(=O)N1`, in assay [1], the IC50 is 700 µM.

`COC(=O)c1ccccc1OCCOc1ccc(C=C2C(=O)NC(=O)NC2=O)cc1`: the IC50 in assay [1] was found to be 100 µM.

As for `COC(=O)COc1ccccc1C=C1C(=O)NC(=O)NC1=O`, the IC50 in assay [2] came out at 5550 µM. Regarding `COC(=O)COc1cccc(C=C2C(=O)NC(=O)NC2=O)c1`, the IC50 in assay [2] stood at 10400 µM. In the case of `COC(=O)c1ccc(OCCOc2ccccc2C=C2C(=O)NC(=O)NC2=O)cc1`, the IC50 in assay [1] came to 3500 µM.

As to `COC(=O)CCCOc1ccccc1C=C1C(=O)NC(=O)NC1=O`, the IC50 in assay [2] was 990 µM. For the molecule `O=Cc1cc(=O)[nH]c(=O)[nH]1`, the IC50 is 1000 µM in assay [1] and 6510 µM in assay [2]. Consider `COC(=O)CCCOc1cccc(C=C2C(=O)NC(=O)NC2=O)c1`, for which, in assay [2], the IC50 was 4200 µM. In assay [2], `COC(=O)c1ccccc1OCCOc1ccccc1C=C1C(=O)NC(=O)NC1=O` had an IC50 of 1060 µM. In the case of `O=C1NC(=O)C(=Cc2ccc(Br)cc2)C(=O)N1`, in assay [1], the 50% inhibitory concentration (IC50) is 1500 µM. As for `O=C1CC(=O)NC(=O)N1` [BARBITURIC ACID], the IC50 worked out at 1000 µM in assay [1] and 7290 µM in assay [2]. Take `Cc1cc2nc3[nH]c(=O)[nH]c(=O)c3nc2cc1C` [LUMICHROME]: the IC50 in assay [1] was determined as 1500 µM. With `O=C(O)c1cc(=O)[nH]c(=O)[nH]1` [OROTIC ACID], the IC50 is 2300 µM in assay [1] and 14200 µM in assay [2]. Molecule `O=C1CSC(=O)N1` [THIAZOLIDINEDIONE] gave an IC50 in assay [2] of 17300 µM. As for `O=c1cc[nH]c(=O)[nH]1` [URACIL], the 50% inhibitory concentration (IC50) is 800 µM in assay [1] and 2050 µM in assay [2]. In the same order, the values of `Oc1nc(O)c2nc(O)[nH]c2n1` [URIC ACID] are 1700 µM and 16400 µM.

One may read the IC50 as the concentration that inhibits the measured activity by half.

These data come from ChEMBL document CHEMBL5620410, “Crystal structures of non-uracil ring fragments in complex with Mycobacterium tuberculosis uracil DNA glycosylase (MtUng) as a starting point for novel inhibitor design: A case study with the barbituric acid fragment” (Eur J Med Chem, 2023).
